From ChEMBL document CHEMBL5244269, “Improving metabolic stability and removing aldehyde oxidase liability in a 5-azaquinazoline series of IRAK4 inhibitors” (Bioorg Med Chem, 2020)

Tests used:
[1] = Metabolic stability in human cytosol assessed as intrinsic clearance; type: ADME, subcellular
[2] = target: T1, Interleukin-1 receptor-associated kinase 4 (Homo sapiens, UniProt Q9NWZ3); test: Inhibition of IRAK4 (unknown origin) phosphorylation by cell based assay
T1 sequence (Q9NWZ3 whole entry): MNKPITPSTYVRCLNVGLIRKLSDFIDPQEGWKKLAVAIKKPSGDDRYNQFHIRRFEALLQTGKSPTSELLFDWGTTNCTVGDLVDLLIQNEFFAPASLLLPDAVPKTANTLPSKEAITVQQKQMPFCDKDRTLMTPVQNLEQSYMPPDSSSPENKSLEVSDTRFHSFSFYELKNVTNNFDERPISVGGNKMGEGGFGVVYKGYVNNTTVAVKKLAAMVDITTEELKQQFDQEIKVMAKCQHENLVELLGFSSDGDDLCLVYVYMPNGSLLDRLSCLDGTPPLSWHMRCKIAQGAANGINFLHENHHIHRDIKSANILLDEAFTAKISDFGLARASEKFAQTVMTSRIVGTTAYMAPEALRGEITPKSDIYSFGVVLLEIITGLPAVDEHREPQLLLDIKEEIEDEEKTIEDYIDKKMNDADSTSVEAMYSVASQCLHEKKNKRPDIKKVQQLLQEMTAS

[3] = Metabolic stability in human liver microsomes assessed as intrinsic clearance; type: ADME, Microsome; conditions: read-out: CLH
Homo sapiens [4] = organism: Homo sapiens; test: Selectivity index, ratio of IC50 for inhibition of TRKA (unknown origin) to IC50 for inhibition of IRAK4 (unknown origin)
[5] = target: BDNF/NT-3 growth factors receptor (Homo sapiens, UniProt Q16620); test: Inhibition of TRKB (unknown origin) in presence of 25 uM ATP
[6] = Lipophilicity, LogD at pH 7.4 of the compound by shake flask method; type: physicochemical; conditions: buffer
[7] = target: NT-3 growth factor receptor (Homo sapiens, UniProt Q16288); test: Inhibition of TRKC (unknown origin) in presence of 50 uM ATP
[8] = target: High affinity nerve growth factor receptor (Homo sapiens, UniProt P04629); test: Inhibition of TRKA (unknown origin) in presence of 400 uM ATP
Homo sapiens [9] = organism: Homo sapiens; test: Selectivity index, ratio of IC50 for inhibition of TRKB (unknown origin) to IC50 for inhibition of IRAK4 (unknown origin)
[10] = target: T2, Phosphatidylinositol 4,5-bisphosphate 3-kinase catalytic subunit delta isoform (Homo sapiens, UniProt O00329); test: Inhibition of PI3Kdelta (unknown origin) in presence of […] uM ATP
T2 sequence (O00329 whole entry): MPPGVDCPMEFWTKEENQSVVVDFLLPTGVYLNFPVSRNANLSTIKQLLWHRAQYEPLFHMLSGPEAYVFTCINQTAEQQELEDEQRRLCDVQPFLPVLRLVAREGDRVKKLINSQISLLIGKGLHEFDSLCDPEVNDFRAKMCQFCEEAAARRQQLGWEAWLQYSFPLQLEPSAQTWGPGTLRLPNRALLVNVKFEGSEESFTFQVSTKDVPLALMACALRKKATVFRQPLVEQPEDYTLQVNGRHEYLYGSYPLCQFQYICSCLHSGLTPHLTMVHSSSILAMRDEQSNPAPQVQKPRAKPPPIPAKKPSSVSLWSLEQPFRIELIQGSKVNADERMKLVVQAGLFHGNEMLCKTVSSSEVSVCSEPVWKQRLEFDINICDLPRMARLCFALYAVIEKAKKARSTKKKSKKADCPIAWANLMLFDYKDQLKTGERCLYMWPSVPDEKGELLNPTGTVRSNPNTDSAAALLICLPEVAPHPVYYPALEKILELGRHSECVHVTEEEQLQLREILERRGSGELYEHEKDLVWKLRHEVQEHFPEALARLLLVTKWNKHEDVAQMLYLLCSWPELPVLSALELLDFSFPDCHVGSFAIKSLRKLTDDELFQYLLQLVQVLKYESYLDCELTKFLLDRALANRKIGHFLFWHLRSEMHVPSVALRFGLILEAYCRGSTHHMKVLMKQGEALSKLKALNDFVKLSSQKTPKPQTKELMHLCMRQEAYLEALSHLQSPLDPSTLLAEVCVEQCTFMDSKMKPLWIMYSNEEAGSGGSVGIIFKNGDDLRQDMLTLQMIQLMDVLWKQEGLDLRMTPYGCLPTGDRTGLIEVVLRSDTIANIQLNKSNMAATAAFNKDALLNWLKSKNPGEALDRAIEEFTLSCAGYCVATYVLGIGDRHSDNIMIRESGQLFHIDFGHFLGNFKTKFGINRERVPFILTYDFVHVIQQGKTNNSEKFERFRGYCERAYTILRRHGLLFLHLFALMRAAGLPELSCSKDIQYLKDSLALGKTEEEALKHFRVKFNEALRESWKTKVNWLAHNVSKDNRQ

Homo sapiens [11] = organism: Homo sapiens; test: Selectivity index, ratio of IC50 for inhibition of PI3Kdelta (unknown origin) to IC50 for inhibition of IRAK4 (unknown origin)
Homo sapiens [12] = organism: Homo sapiens; test: Selectivity index, ratio of IC50 for inhibition of IRAK1 (unknown origin) to IC50 for inhibition of IRAK4 (unknown origin)
[13] = Metabolic stability in human hepatocytes assessed as intrinsic clearance measured per 10^6 cells; type: ADME, cell-based, Hepatocyte; conditions: read-out: CLH
[14] = target: Interleukin-1 receptor-associated kinase 1 (Homo sapiens, UniProt P51617); test: Inhibition of IRAK1 (unknown origin) in presence of 25 uM ATP
Homo sapiens [15] = organism: Homo sapiens; test: Selectivity index, ratio of IC50 for inhibition of TRKC (unknown origin) to IC50 for inhibition of IRAK4 (unknown origin)
[16] = target: T1, Interleukin-1 receptor-associated kinase 4; test: Inhibition of IRAK4 (unknown origin) in presence of ATP by enzymatic assay
[17] = target: T3, Receptor-type tyrosine-protein kinase FLT3 (Homo sapiens, UniProt P36888); test: Inhibition of FLT3 (unknown origin) in presence of 600 uM ATP
T3 sequence (P36888 whole entry): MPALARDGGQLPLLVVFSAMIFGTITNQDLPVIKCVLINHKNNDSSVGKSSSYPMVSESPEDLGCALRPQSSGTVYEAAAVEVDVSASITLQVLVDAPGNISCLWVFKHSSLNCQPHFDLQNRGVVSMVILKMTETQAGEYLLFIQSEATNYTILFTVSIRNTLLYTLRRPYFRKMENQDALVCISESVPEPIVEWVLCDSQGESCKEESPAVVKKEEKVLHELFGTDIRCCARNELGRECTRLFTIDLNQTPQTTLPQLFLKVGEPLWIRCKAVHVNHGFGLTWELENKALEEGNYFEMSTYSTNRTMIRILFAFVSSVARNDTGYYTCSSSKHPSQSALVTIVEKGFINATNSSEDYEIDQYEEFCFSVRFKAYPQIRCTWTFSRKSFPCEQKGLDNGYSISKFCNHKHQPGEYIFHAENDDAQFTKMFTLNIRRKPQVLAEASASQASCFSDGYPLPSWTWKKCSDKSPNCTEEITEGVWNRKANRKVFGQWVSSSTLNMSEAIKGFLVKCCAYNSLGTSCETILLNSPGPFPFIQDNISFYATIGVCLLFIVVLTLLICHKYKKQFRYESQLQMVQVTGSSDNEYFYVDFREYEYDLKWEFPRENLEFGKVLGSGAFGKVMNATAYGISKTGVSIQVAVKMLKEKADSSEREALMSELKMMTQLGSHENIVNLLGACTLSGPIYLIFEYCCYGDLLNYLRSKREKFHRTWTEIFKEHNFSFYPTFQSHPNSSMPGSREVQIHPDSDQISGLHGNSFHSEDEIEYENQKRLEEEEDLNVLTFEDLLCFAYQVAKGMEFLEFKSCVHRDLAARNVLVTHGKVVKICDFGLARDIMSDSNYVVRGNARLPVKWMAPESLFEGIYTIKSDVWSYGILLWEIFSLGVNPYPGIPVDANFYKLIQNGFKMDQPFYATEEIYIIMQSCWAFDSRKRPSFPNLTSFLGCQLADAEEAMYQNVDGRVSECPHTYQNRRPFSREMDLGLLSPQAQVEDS

[18] = target: Tyrosine-protein kinase BTK (Homo sapiens, UniProt Q06187); test: Inhibition of BTK (unknown origin) in presence of 25 uM ATP
Homo sapiens [19] = organism: Homo sapiens; test: Selectivity index, ratio of IC50 for inhibition of BTK (unknown origin) to IC50 for inhibition of IRAK4 (unknown origin)
Homo sapiens [20] = organism: Homo sapiens; test: Selectivity index, ratio of IC50 for inhibition of FLT3 (unknown origin) to IC50 for inhibition of IRAK4 (unknown origin)

Sequence of NT-3 growth factor receptor (Q16288 whole entry): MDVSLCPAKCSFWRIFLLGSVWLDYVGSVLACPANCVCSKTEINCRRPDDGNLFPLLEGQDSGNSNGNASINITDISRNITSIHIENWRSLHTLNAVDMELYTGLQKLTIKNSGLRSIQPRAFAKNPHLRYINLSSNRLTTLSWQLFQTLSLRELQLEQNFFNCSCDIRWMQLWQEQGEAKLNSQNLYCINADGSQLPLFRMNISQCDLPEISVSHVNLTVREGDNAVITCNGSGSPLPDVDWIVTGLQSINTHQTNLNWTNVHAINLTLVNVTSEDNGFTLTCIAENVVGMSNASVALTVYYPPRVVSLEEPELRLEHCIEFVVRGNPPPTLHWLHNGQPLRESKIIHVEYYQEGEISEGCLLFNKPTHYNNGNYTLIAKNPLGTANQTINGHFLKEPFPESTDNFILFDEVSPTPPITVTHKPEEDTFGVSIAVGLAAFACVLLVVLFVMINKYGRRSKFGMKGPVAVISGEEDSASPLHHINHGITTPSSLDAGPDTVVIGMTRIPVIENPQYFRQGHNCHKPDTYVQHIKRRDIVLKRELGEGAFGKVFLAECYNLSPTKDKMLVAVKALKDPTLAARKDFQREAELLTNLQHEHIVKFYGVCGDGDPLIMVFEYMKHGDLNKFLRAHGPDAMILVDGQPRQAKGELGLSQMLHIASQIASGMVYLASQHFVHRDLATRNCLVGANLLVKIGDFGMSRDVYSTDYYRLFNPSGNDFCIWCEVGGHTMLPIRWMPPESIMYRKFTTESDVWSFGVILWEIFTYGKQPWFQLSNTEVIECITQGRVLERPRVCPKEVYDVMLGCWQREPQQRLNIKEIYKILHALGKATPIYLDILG
Sequence of Interleukin-1 receptor-associated kinase 1 (P51617 whole entry): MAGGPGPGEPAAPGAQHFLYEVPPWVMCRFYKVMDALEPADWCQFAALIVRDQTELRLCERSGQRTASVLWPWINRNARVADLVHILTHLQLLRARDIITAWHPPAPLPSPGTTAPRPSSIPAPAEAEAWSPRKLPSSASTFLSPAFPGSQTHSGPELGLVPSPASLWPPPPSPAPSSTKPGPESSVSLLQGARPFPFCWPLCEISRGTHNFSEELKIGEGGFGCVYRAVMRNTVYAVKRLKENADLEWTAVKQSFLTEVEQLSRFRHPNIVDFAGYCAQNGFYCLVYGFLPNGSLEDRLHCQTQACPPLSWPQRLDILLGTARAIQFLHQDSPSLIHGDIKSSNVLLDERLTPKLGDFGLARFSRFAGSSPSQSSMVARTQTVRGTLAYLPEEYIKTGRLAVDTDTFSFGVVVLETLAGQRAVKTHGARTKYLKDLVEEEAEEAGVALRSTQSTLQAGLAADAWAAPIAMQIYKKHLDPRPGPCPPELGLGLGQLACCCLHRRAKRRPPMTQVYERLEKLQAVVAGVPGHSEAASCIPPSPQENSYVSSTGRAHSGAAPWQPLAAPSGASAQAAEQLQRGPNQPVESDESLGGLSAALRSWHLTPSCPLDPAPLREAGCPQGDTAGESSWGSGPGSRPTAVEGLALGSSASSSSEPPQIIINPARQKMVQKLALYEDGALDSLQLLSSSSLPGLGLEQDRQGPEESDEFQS
Sequence of Tyrosine-protein kinase BTK (Q06187 whole entry): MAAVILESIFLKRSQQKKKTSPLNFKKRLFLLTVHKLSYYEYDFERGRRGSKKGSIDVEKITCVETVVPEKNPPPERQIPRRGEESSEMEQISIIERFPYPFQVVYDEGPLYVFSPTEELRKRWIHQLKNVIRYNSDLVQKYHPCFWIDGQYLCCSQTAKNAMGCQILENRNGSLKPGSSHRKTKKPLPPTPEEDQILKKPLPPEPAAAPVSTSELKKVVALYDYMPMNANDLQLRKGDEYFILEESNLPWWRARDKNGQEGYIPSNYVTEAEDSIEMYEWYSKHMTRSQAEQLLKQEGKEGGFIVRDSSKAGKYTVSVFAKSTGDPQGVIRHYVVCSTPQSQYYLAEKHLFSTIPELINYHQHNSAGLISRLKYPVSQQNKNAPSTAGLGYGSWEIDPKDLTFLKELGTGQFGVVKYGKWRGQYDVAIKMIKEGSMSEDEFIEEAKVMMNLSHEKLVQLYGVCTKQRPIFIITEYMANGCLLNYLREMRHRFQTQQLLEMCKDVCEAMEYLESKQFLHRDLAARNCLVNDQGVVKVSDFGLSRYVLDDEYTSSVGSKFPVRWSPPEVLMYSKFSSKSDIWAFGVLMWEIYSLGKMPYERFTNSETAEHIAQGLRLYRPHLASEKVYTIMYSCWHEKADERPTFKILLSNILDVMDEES
Sequence of BDNF/NT-3 growth factors receptor (Q16620 whole entry): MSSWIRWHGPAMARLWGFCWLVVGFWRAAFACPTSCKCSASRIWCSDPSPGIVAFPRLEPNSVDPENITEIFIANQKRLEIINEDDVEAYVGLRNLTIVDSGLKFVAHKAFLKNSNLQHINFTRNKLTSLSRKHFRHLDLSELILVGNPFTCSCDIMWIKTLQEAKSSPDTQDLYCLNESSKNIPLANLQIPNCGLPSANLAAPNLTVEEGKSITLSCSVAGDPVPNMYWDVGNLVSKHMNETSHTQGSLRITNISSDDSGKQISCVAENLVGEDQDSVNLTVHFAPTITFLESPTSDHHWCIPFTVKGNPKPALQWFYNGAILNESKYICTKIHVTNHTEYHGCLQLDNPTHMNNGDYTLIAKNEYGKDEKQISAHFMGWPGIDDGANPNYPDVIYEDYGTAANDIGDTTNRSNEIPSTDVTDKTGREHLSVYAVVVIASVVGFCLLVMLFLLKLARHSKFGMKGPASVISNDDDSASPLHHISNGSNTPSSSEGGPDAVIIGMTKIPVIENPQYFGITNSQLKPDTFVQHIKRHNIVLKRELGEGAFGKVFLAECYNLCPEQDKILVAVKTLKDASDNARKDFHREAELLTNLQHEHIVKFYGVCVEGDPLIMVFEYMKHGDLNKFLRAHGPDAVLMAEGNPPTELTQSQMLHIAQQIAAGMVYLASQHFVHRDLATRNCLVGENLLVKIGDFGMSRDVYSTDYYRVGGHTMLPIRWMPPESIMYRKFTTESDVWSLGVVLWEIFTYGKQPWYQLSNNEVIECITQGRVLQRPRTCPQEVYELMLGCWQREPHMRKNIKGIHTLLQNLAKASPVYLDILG
Sequence of High affinity nerve growth factor receptor (P04629 whole entry): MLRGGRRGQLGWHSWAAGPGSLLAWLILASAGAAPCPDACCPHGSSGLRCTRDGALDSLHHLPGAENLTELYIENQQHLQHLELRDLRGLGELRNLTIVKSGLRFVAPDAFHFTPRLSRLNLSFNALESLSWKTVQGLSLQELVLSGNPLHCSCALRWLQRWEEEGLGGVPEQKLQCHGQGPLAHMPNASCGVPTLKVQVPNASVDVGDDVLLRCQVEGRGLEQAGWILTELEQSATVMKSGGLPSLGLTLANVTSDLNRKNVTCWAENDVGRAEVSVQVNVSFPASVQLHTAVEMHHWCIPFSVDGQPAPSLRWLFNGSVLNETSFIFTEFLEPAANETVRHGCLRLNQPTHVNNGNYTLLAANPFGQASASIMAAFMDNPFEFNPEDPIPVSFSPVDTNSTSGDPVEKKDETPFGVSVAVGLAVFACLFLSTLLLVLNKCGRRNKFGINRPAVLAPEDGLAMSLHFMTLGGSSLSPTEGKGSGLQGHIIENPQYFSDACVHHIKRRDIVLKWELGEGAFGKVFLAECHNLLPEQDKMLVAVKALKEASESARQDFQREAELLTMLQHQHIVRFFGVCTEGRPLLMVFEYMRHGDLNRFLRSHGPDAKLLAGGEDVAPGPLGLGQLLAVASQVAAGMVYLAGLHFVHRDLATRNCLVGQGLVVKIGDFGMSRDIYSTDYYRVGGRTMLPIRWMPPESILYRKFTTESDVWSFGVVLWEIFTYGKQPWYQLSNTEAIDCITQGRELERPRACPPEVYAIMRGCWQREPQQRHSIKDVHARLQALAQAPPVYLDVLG

- microsomal CLint [1]: 191 µL/min/mg
- IC50 [2]: 0.024 µM
- microsomal CLint [3]: 96 µL/min/mg
- Ratio IC50 (Homo sapiens [4]): 32
- IC50 [5]: 0.082 µM
- logD [6]: 2
- IC50 [7]: 0.036 µM
- IC50 [8]: 0.019 µM
- Ratio IC50 (Homo sapiens [9]): 140
- IC50 [10]: 0.018 µM
- Ratio IC50 (Homo sapiens [11]): 30
- Ratio IC50 (Homo sapiens [12]): 3
- hepatocyte CLint [13]: 110 µL/min/1e6 cells
- IC50 [14]: 0.002 µM
- Ratio IC50 (Homo sapiens [15]): 60
- IC50 [16]: 0.0006 µM
- IC50 [17]: 1.2 µM
- IC50 [18]: 0.044 µM
- Ratio IC50 (Homo sapiens [19]): 70
- Ratio IC50 (Homo sapiens [20]): > 1000
SMILES: CN1CCC(n2cc(Nc3nc(OC4(C)CC4)c4nc(-c5cncnc5)ccc4n3)cn2)CC1
